Values of other authors in patent US20170027963A1, “DELIVERY OF NON-STEROIDAL AGENTS TO THE BRAIN VIA THE NASAL TRACT TO TREAT NEUROLOGICAL DISORDERS” (priority 2014, published 2017).

Conditions: prescribed ibuprofen for more than five years vs those who did not; US veterans aged 55 and older

CC(C)Cc1ccc(C(C)C(=O)O)cc1 (stereo not shown) [ibuprofen]
less likely to develop Alzheimer's disease: 40%
